What was measured:
[1] = Rat brain free fraction (Fu) measurement by equilibrium dialysis; details: male, Sprague-Dawley, brain homogenate (25% w/v in PBS), pH 7.4
rat MAO-A enzyme = rat MAO-A enzyme (Rattus norvegicus (Rat), UniProt P21396); test: Rat MAO-A binding, competition for [3H]Ro 41-1049 in rat cerebral cortex; details: for inhibition at 0.01 µM: 10 nM [3H]Ro 41-1049, read-out: Rat MAO-A Binding INHIB 10 nM; for inhibition at 0.1 µM: 10 nM [3H]Ro 41-1049, read-out: Rat MAO-A Binding INHIB 100 nM
Sequence of rat MAO-A enzyme (P21396 whole entry): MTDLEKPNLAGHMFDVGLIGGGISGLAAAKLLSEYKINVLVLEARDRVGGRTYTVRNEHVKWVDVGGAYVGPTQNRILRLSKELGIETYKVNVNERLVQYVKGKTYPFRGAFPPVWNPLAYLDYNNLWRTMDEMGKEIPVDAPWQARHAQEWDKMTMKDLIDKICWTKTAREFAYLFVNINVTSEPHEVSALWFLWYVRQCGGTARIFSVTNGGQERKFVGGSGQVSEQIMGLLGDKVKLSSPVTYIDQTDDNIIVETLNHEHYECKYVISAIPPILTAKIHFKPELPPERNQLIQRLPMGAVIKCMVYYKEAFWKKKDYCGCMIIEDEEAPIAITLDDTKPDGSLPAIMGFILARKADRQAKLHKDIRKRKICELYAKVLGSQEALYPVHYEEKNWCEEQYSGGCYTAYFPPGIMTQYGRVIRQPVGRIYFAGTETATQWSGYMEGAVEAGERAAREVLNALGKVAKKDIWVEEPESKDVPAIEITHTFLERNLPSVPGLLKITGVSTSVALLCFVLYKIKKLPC
Protocol: Compound selectivity for Tau protein was assessed as compared to a broad panel of receptors, enzymes and ion channels. Selectivity profiling of 10 μM compounds against a panel of 81 targets (n=1 with data in duplicate) was performed. Compounds affinity for rat MAO-A enzyme was assessed in rat cerebral cortex by competition experiment for 10 nM [^3H]Ro 41-1049 and increasing concentrations of test compounds. Compounds affinity for human MAO-A enzyme (1 μg/assay, Sigma-Aldrich, Diegem, Belgium) was assessed by saturation binding experiment performed as described above with [^3H]compounds.

[2] = brain homogenate

Compound	fraction unbound at 4 h, 1 μM [1]	inhibition at 0.01 µM (rat MAO-A enzyme; 10 nM test compound) [%]	inhibition at 0.1 µM (rat MAO-A enzyme; 100 nM test compound) [%]	Rat MAO-A Binding INHIB 10 nM (rat MAO-A enzyme; 10 nM test compound, 10 nM [3H]Ro 41-1049) [%]	Rat MAO-A Binding INHIB 100 nM (rat MAO-A enzyme; 100 nM test compound, 10 nM [3H]Ro 41-1049) [%]	Fu Rat Brain [2] [%]
COc1cc(-c2ccc3c(n2)[nH]c2ccncc23)ccn1 [Example 2, 2-(2-methoxypyridin-4-yl)-9H-pyrrolo[2,3-b:4,5-c′]dipyridine]	0.009					
Cn1cc(-c2ccc3c(n2)[nH]c2ccncc23)cn1 [Example 4, 2-(1-methyl-1H-pyrazol-4-yl)-9H-pyrrolo[2,3-b:4,5-c′]dipyridine]	0.075	21	50			
COc1ccc(-c2ccc3c(n2)[nH]c2ccncc23)cn1 [Example 5, 2-(6-methoxypyridin-3-yl)-9H-pyrrolo[2,3-b:4,5-c′]dipyridine]	0.006	8	39			
Oc1ccc(-c2ccc3c(n2)[nH]c2ccncc23)cn1 [Example 6, 5-(9H-pyrrolo[2,3-b:4,5-c′]dipyridin-2-yl)pyridin-2-ol]	0.098					
COc1ncc(-c2ccc3c(n2)[nH]c2ccncc23)cc1F [Example 7, 2-(5-fluoro-6-methoxypyridin-3-yl)-9H-pyrrolo[2,3-b:4,5-c′]dipyridine]	0.005					
c1cc2[nH]c3nc(-c4cn[nH]c4)ccc3c2cn1 [Example 9, 2-(1H-pyrazol-4-yl)-9H-pyrrolo[2,3-b:4,5-c′]dipyridine]	0.036	-5	7			
c1cc2[nH]c3nc(-c4cnc(N5CCOCC5)nc4)ccc3c2cn1 [Example 10, 4-(5-(9H-pyrrolo[2,3-b:4,5-c′]dipyridin-2-yl)pyrimidin-2-yl)morpholine]	0.011					
CNC(=O)c1ccc(-c2ccc3c(n2)[nH]c2ccncc23)cn1 [Example 11, N-methyl-5-(9H-pyrrolo[2,3-b:4,5-c′]dipyridin-2-yl)pyridine-2-carboxamide]	0.028	-12	-7			
Nc1ncc(-c2ccc3c(n2)[nH]c2ccncc23)cc1F [Example 12, 3-fluoro-5-(9H-pyrrolo[2,3-b:4,5-c′]dipyridin-2-yl)pyridin-2-amine]	0.005	8	13			
c1cnc(N2CCN(c3ccc4c(n3)[nH]c3ccncc34)CC2)nc1 [Example 13, 2-(4-(pyrimidin-2-yl)piperazin-1-yl)-9H-pyrrolo[2,3-b:4,5-c′]dipyridine]	0.011					
c1cc(N2CCN(c3ccc4c(n3)[nH]c3ccncc34)CC2)ccn1 [Example 14, 2-(4-(pyridin-4-yl)piperazin-1-yl)-9H-pyrrolo[2,3-b:4,5-c′]dipyridine]	0.019					
c1cc2[nH]c3nc(-c4ccn[nH]4)ccc3c2cn1 [Example 15, 2-(1H-pyrazol-3-yl)-9H-pyrrolo[2,3-b:4,5-c′]dipyridine]	0.056					
c1cc2[nH]c3nc(-c4ccc(N5CCOCC5)nc4)ccc3c2cn1 [Example 21, 4-(5-(9H-pyrrolo[2,3-b:4,5-c′]dipyridin-2-yl)pyridin-2-yl)morpholine]	0.005					
N-methyl-5-(9H-pyrrolo[2,3-b:4,5-c′]dipyridin-7-yl)picolinamide [Example 60]				−3	−1	0.5

Second part, the compound after the results:

fraction unbound at 4 h, 1 μM [1]	inhibition at 0.01 µM (rat MAO-A enzyme; 10 nM test compound) [%]	inhibition at 0.1 µM (rat MAO-A enzyme; 100 nM test compound) [%]	Rat MAO-A Binding INHIB 10 nM (rat MAO-A enzyme; 10 nM test compound, 10 nM [3H]Ro 41-1049) [%]	Rat MAO-A Binding INHIB 100 nM (rat MAO-A enzyme; 100 nM test compound, 10 nM [3H]Ro 41-1049) [%]	Fu Rat Brain [2] [%]	Compound
	8	15				COCCNc1ncc(-c2ccc3c(n2)[nH]c2ccncc23)cn1 [Example 22, N-(2-methoxyethyl)-5-(9H-pyrrolo[2,3-b:4,5-c′]dipyridin-2-yl)pyrimidin-2-amine]
0.02	7	9				Cc1cc(-c2ccc3c(n2)[nH]c2ccncc23)n[nH]1 [Example 24, 2-(5-methyl-1H-pyrazol-3-yl)-9H-pyrrolo[2,3-b:4,5-c′]dipyridine]
0.087	13	2				FCCn1cc(-c2ccc3c(n2)[nH]c2ccncc23)cn1 [Example 25, 2-[1-(2-fluoroethyl)-1H-pyrazol-4-yl]-9H-pyrrolo[2,3-b: 4,5-c′]dipyridine]
	8	23				O=C(NCCF)c1ccc(-c2ccc3c(n2)[nH]c2ccncc23)cn1 [Example 29, N-(2-fluoroethyl)-5-(9H-pyrrolo[2,3-b:4,5-c′]dipyridin-2-yl)picolinamide]
	2	9				COCCNC(=O)c1ccc(-c2ccc3c(n2)[nH]c2ccncc23)cn1 [Example 30, N-(2-methoxyethyl)-5-(9H-pyrrolo[2,3-b:4,5-c′]dipyridin-2-yl)picolinamide]
0.007	16	39				COc1cnn(-c2ccc3c(n2)[nH]c2ccncc23)c1 [Example 31, 2-(4-methoxy-1H-pyrazol-1-yl)-9H-pyrrolo[2,3-b:4,5-c′]dipyridine]
0.005	7	46				c1cc2[nH]c3nc(-c4cnc(N5CCOCC5)s4)ccc3c2cn1 [Example 32, 4-(5-(9H-pyrrolo[2,3-b:4,5-c′]dipyridin-2-yl)thiazol-2-yl)morpholine]
0.005						CNc1ccc(C(=O)Nc2ccc3c(n2)[nH]c2ccncc23)cn1 [Example 35, 6-(methylamino)-N-(9H-pyrrolo[2,3-b:4,5-c′]dipyridin-2-yl)nicotinamide]
0.005						COc1cc2[nH]c3nc(-c4ccc(F)nc4)ccc3c2cn1 [Example 36, 2-(6-fluoropyridin-3-yl)-7-methoxy-9H-pyrrolo[2,3-b:4,5-c′]dipyridine]
	2	9				CN(C)c1cc2[nH]c3nc(-c4cnn(C)c4)ccc3c2cn1 [Example 44, N,N-dimethyl-2-(1-methyl-1H-pyrazol-4-yl)-9H-pyrrolo[2,3-b:4,5-c′]dipyridin-7-amine]
0.011						Cc1cc2[nH]c3nc(-c4ccc(F)nc4)ccc3c2cn1 [Example 45, 2-(6-fluoropyridin-3-yl)-7-methyl-9H-pyrrolo[2,3-b:4,5-c′]dipyridine]
	11	12				CNC(=O)c1ccc(-c2ccc3c(n2)[nH]c2cc(C)ncc23)cn1 [Example 46, N-methyl-5-(7-methyl-9H-pyrrolo[2,3-b:4,5-c′]dipyridin-2-yl)picolinamide]
0.028	-1	10				Cc1cc2[nH]c3nc(-c4cnn(C)c4)ccc3c2cn1 [Example 47, 7-methyl-2-(1-methyl-1H-pyrazol-4-yl)-9H-pyrrolo[2,3-b: 4,5-c′]dipyridine]
	-9	-4				CNC(=O)c1ccc(-c2ccc3c(n2)[nH]c2cc(COC)ncc23)cn1 [Example 49, 5-(7-(methoxymethyl)-9H-pyrrolo[2,3-b:4,5-c′]dipyridin-2-yl)-N-methylpicolinamide]
0.04	1	7				COCc1cc2[nH]c3nc(-c4cnn(C)c4)ccc3c2cn1 [Example 50, 7-(methoxymethyl)-2-(1-methyl-1H-pyrazol-4-yl)-9H-pyrrolo[2,3-b: 4,5-c′]dipyridine]
0.045	3	6				Cn1cc(-c2ccc3c(n2)[nH]c2cnccc23)cn1 [Example 51, 2-(1-methyl-1H-pyrazol-4-yl)-9H-pyrrolo[2,3-b:5,4-c′]dipyridine]
0.026						c1cc2c(cn1)[nH]c1nc(-c3cn[nH]c3)ccc12 [Example 52, 2-(1H-pyrazol-4-yl)-9H-pyrrolo[2,3-b:5,4-c′]dipyridine]
0.015	-10	-13				CNC(=O)c1ccc(-c2ccc3c(n2)[nH]c2cnccc23)cn1 [Example 53, N-methyl-5-(9H-pyrrolo[2,3-b:5,4-c′]dipyridin-2-yl)picolinamide]
0.019	10	12				Fc1ccc(-c2ccc3c(n2)[nH]c2cnccc23)cn1 [Example 54, 2-(6-fluoropyridin-3-yl)-9H-pyrrolo[2,3-b:5,4-c′]dipyridine]
0.005	6	9				CNc1ccc(-c2ccc3c(n2)[nH]c2cnccc23)cn1 [Example 55, N-methyl-5-(9H-pyrrolo[2,3-b:5,4-c′]dipyridin-2-yl)pyridin-2-amine]
0.013	1	8				Fc1ccc(-c2ccc3c(n2)[nH]c2ncccc23)cn1 [Example 57, 2-(6-fluoropyridin-3-yl)-9H-pyrrolo[2,3-b:5,4-b′]dipyridine]

Reference: patent US11312716B2, “9H-pyrrolo-dipyridine derivatives” (UCB Biopharma SRL, priority 2015, dated 2022)
